Measurements as given in ChEMBL document CHEMBL1139062, “Synthesis and biological evaluation of new conformationally biased integrin ligands based on a tetrahydroazoninone scaffold” (Bioorg Med Chem Lett, 2007).

Legend:
Type in all cases: protein-complex assay
[1] = molecular target: T1, Integrin alpha-V/beta-5 (Homo sapiens) (UniProt P06756+P18084); assay: Displacement of [125I]echistatin from integrin alpha-V-beta-5 receptor at 1000 uM
[2] = molecular target: T2, Integrin alpha-V/beta-3 (Homo sapiens) (UniProt P05106+P06756); assay: Displacement of [125I]echistatin from integrin alpha-V-beta-3 receptor at 1 uM
[3] = molecular target: T2, Integrin alpha-V/beta-3 (Homo sapiens); assay: Displacement of [125I]echistatin from integrin alpha-V-beta-3 receptor at 10 uM
[4] = molecular target: T1, Integrin alpha-V/beta-5 (Homo sapiens); assay: Displacement of [125I]echistatin from integrin alpha-V-beta-5 receptor at […]
[5] = molecular target: T2, Integrin alpha-V/beta-3 (Homo sapiens); assay: Displacement of [125I]echistatin from integrin alpha-V-beta-3 receptor at 0.01 uM
[6] = molecular target: T2, Integrin alpha-V/beta-3 (Homo sapiens); assay: Displacement of [125I]echistatin from integrin alpha-V-beta-3 receptor at 0.001 uM
[7] = molecular target: T2, Integrin alpha-V/beta-3 (Homo sapiens); assay: Displacement of [125I]echistatin from integrin alpha-V-beta-3 receptor at 0.1 uM

Compound | inhibition [1] [%] | inhibition [2] [%] | inhibition [3] [%] | inhibition [4] [%] | inhibition [5] [%] | inhibition [6] [%] | inhibition [7] [%]
CC12CC/C=C\CC(NC1=O)C(=O)N[C@H](CCCNC(=N)N)C(=O)NCC(=O)N[C@@H](CC(=O)O)C(=O)N2Cc1ccccc1 (stereo in doubt; 2a) | 13 | 49 | 48 | 17 | – | – | –
CC12CC/C=C\CC(NC1=O)C(=O)N[C@H](CCCNC(=N)N)C(=O)NCC(=O)N[C@@H](CC(=O)O)C(=O)N2Cc1ccccc1 (stereo in doubt; 2b) | 13 | 50 | 52 | 15 | 15 | 5 | 53
CC12CC/C=C\CC(NC1=O)C(=O)N[C@H](CCCNC(=N)N)C(=O)NCC(=O)N[C@@H](CC(=O)O)C(=O)N2 (stereo in doubt; 3a) | – | 30 | 62 | – | – | – | –

Other lines, results leading:

inhibition [1] [%] | inhibition [2] [%] | inhibition [3] [%] | inhibition [4] [%] | inhibition [5] [%] | inhibition [6] [%] | inhibition [7] [%] | Compound
– | – | – | – | – | 85 | – | N=C(N)NCCC[C@@H]1NC(=O)CNC(=O)[C@@H](CC(=O)O)N[C@H]2CCC[C@H]3CC[C@H](C1=O)N3C2=O
– | 30 | 62 | – | – | – | – | CC12CC/C=C\CC(NC1=O)C(=O)N[C@H](CCCNC(=N)N)C(=O)NCC(=O)N[C@@H](CC(=O)O)C(=O)N2 (stereo in doubt; 3b)
